Laboratory results taken from PubChem BioAssay AID330 (DTP/NCI, 2004).
Values joined by “and” are separate entries in the source; they are usually repeats but may differ in a detail not shown here. Equal values may be shown once. Inconclusive results and toxic doses are left out.

System: P388 leukemia ip, CD2F1 mice, survival T/C
Experiment: NCI In Vivo Anticancer Drug Screen. Data for tumor model P388 Leukemia (intraperitoneal) in CD2F1 (CDF1) mice
Conditions: endpoint: median survival time, higher = longer survival
Procedure, shortened: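 Mice carrying the transplanted tumor received test compound or vehicle. Survival was recorded in each group, and the value is the treated-group measurement divided by that of the vehicle-treated control group.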

[1] = dose: 50.0 mg/kg/injection, schedule: Q01DX009 (ip), vehicle: other
[2] = dose: 50.0 mg/kg/injection, schedule: Q01DX009 (ip), vehicle: saline
[3] = dose: 100.0 mg/kg/injection, schedule: Q01DX009 (ip), vehicle: saline
[4] = dose: 100.0 mg/kg/injection, schedule: Q04DX002 (ip), vehicle: saline with Tween-80
[5] = dose: 200.0 mg/kg/injection, schedule: Q04DX002 (ip), vehicle: saline with Tween-80
[6] = dose: 400.0 mg/kg/injection, schedule: Q04DX002 (ip), vehicle: saline with Tween-80
[7] = dose: 50.0 mg/kg/injection, schedule: Q01DX005 (ip), vehicle: Klucel (hydroxypropylcellulose) (HPC)
[8] = dose: 100.0 mg/kg/injection, schedule: Q01DX005 (ip), vehicle: Klucel (hydroxypropylcellulose) (HPC)
[9] = dose: 200.0 mg/kg/injection, schedule: Q01DX005 (ip), vehicle: Klucel (hydroxypropylcellulose) (HPC)
[10] = dose: 200.0 mg/kg/injection, schedule: Q01DX009 (ip), vehicle: saline

SMILES: C=CCCCC(=O)CCCCO
- T/C [1]: 95 % of control
- T/C (dose: 100.0 mg/kg/injection, schedule: Q01DX009 (ip), vehicle: other): 107 % of control
- T/C (dose: 200.0 mg/kg/injection, schedule: Q01DX009 (ip), vehicle: other): 101 % of control

SMILES: COc1ccc2c(c1OC)C(=C(C#N)C#N)N1CCc3cc4c(cc3C1=C2)OCO4
- T/C (dose: 0.63 mg/kg/injection, schedule: Q01DX009 (ip), vehicle: distilled water + Tween-80): 103 % of control
- T/C (dose: 1.25 mg/kg/injection, schedule: Q01DX009 (ip), vehicle: distilled water + Tween-80): 94 % of control
- T/C (dose: 2.5 mg/kg/injection, schedule: Q01DX009 (ip), vehicle: distilled water + Tween-80): 112 % of control
- T/C (dose: 5.0 mg/kg/injection, schedule: Q01DX009 (ip), vehicle: distilled water + Tween-80): 112 % of control
- T/C (dose: 10.0 mg/kg/injection, schedule: Q01DX009 (ip), vehicle: distilled water + Tween-80): 108 % of control
- T/C (dose: 20.0 mg/kg/injection, schedule: Q01DX009 (ip), vehicle: distilled water + Tween-80): 121 % of control

SMILES: Oc1c(CNCCCN2CCCC2)cc(Cl)c2cccnc12
- T/C (dose: 12.5 mg/kg/injection, schedule: Q01DX009 (ip), vehicle: saline): 102 % of control and 107 % of control
- T/C (dose: 25.0 mg/kg/injection, schedule: Q01DX009 (ip), vehicle: saline): 91 % of control and 96 % of control
- T/C [2]: 88 % of control and 95 % of control
- T/C [3]: 110 % of control and 112 % of control

SMILES: N=C(N)c1nc2ccccc2s1
- T/C (dose: 12.5 mg/kg/injection, schedule: Q01DX009 (ip), vehicle: other): 102 % of control
- T/C (dose: 25.0 mg/kg/injection, schedule: Q01DX009 (ip), vehicle: other): 104 % of control
- T/C [1]: 93 % of control

SMILES: C[Si](C)(C)CCCn1ccc(=O)[nH]c1=O
- T/C (dose: 60.0 mg/kg/injection, schedule: Q01DX005 (ip), vehicle: saline with Tween-80): 98 % of control
- T/C (dose: 120.0 mg/kg/injection, schedule: Q01DX005 (ip), vehicle: saline with Tween-80): 92 % of control
- T/C (dose: 240.0 mg/kg/injection, schedule: Q01DX005 (ip), vehicle: saline with Tween-80): 88 % of control

SMILES: CCCCCCCCCN1CCS(=O)(=O)CC1
- T/C (dose: 50.0 mg/kg/injection, schedule: Q01DX009 (ip), vehicle: Klucel (hydroxypropylcellulose) (HPC)): 94 % of control
- T/C (dose: 100.0 mg/kg/injection, schedule: Q01DX009 (ip), vehicle: Klucel (hydroxypropylcellulose) (HPC)): 98 % of control
- T/C (dose: 200.0 mg/kg/injection, schedule: Q01DX009 (ip), vehicle: Klucel (hydroxypropylcellulose) (HPC)): 103 % of control

SMILES: CN=C(c1ccc(NC(=O)c2cccc(C(=O)Nc3ccc(C(=NC)N(C)C)cc3)c2)cc1)N(C)C
- T/C (dose: 1.56 mg/kg/injection, schedule: Q01DX005 (ip), vehicle: saline): 102 % of control
- T/C (dose: 3.12 mg/kg/injection, schedule: Q01DX005 (ip), vehicle: saline): 102 % of control
- T/C (dose: 6.25 mg/kg/injection, schedule: Q01DX005 (ip), vehicle: saline): 106 % of control and 96 % of control

SMILES: CCOC(=O)c1c(N)c(C(=O)c2ccccc2)n2ccc3ccccc3c12
- T/C [4]: 100 % of control
- T/C [5]: 99 % of control
- T/C [6]: 92 % of control

SMILES: COc1ccc2c(c1)c(COC(C)=O)c(COC(C)=O)c[n+]2[O-]
- T/C [7]: 98 % of control
- T/C [8]: 97 % of control
- T/C [9]: 94 % of control

SMILES: Cc1cc(C(=O)NN)c(C#N)c(=O)[nH]1
- T/C [3]: 100 % of control
- T/C [10]: 109 % of control
- T/C (dose: 400.0 mg/kg/injection, schedule: Q01DX009 (ip), vehicle: saline): 90 % of control

SMILES: Cc1ccc(O)c(C(c2cc(C)ccc2O)c2cc(C)ccc2O)c1
- T/C (dose: 25.0 mg/kg/injection, schedule: Q01DX009 (ip), vehicle: saline with Tween-80): 107 % of control
- T/C (dose: 50.0 mg/kg/injection, schedule: Q01DX009 (ip), vehicle: saline with Tween-80): 105 % of control and 113 % of control
- T/C (dose: 100.0 mg/kg/injection, schedule: Q01DX009 (ip), vehicle: saline with Tween-80): 101 % of control

SMILES: CN(C)c1ccc([N+](C)(C)Cc2ccc(C[N+](C)(C)c3ccc([N+](C)(C)Cc4ccc(CCl)cc4)cc3)cc2)cc1
- T/C (dose: 3.13 mg/kg/injection, schedule: Q01DX001 (ip), vehicle: saline): 108 % of control
- T/C (dose: 6.25 mg/kg/injection, schedule: Q01DX001 (ip), vehicle: saline): 112 % of control and 97 % of control

SMILES: Cc1cccc(-n2c(-c3ccc(Cl)cc3)cs/c2=N\Nc2nnc(-c3ccccc3)c(-c3ccccc3)n2)c1
- T/C [4]: 88 % of control
- T/C [5]: 87 % of control
- T/C [6]: 89 % of control

SMILES: CC1=NN(c2cccc(S(=O)(=O)O)c2)C(=O)C1
- T/C (dose: 25.0 mg/kg/injection, schedule: Q01DX009 (ip), vehicle: saline sonified): 100 % of control
- T/C (dose: 50.0 mg/kg/injection, schedule: Q01DX009 (ip), vehicle: saline sonified): 100 % of control
- T/C [2]: 89 % of control
- T/C (dose: 100.0 mg/kg/injection, schedule: Q01DX009 (ip), vehicle: saline sonified): 100 % of control
- T/C [3]: 95 % of control
- T/C [10]: 96 % of control

SMILES: O=Cc1ccc2occc2c1O
- T/C (dose: 3.75 mg/kg/injection, schedule: Q01DX009 (ip), vehicle: saline with Tween-80): 95 % of control
- T/C (dose: 7.5 mg/kg/injection, schedule: Q01DX009 (ip), vehicle: saline with Tween-80): 94 % of control
- T/C (dose: 15.0 mg/kg/injection, schedule: Q01DX009 (ip), vehicle: saline with Tween-80): 92 % of control

SMILES: CCCCC[CH2][Ge]([CH2]CCCCC)([CH2]CCCCC)[O]C(C)=O
- T/C (dose: 50.0 mg/kg/injection, schedule: Q01DX001 (ip), vehicle: Klucel (hydroxypropylcellulose) (HPC)): 100 % of control and 107 % of control
- T/C (dose: 100.0 mg/kg/injection, schedule: Q01DX001 (ip), vehicle: Klucel (hydroxypropylcellulose) (HPC)): 101 % of control and 106 % of control
- T/C (dose: 200.0 mg/kg/injection, schedule: Q01DX001 (ip), vehicle: Klucel (hydroxypropylcellulose) (HPC)): 104 % of control and 115 % of control
- T/C (dose: 400.0 mg/kg/injection, schedule: Q01DX001 (ip), vehicle: Klucel (hydroxypropylcellulose) (HPC)): 120 % of control

SMILES: Clc1ccc(-c2nnc(Nc3ccnc4cc(Cl)ccc34)s2)cc1
- T/C (dose: 12.5 mg/kg/injection, schedule: Q01DX005 (ip), vehicle: saline with Tween-80): 96 % of control
- T/C (dose: 25.0 mg/kg/injection, schedule: Q01DX005 (ip), vehicle: saline with Tween-80): 96 % of control
- T/C (dose: 50.0 mg/kg/injection, schedule: Q01DX005 (ip), vehicle: saline with Tween-80): 99 % of control and 102 % of control

SMILES: COc1cc(C2CC(C)(N3CCCC3)Oc3cc4c(cc32)OCO4)cc(OC)c1OC (stereo unspecified)
- T/C (dose: 60.0 mg/kg/injection, schedule: Q01DX005 (ip), vehicle: Klucel (hydroxypropylcellulose) (HPC)): 106 % of control and 109 % of control

SMILES: O=C1CSc2nc3c(I)cc(I)cc3c(=O)n21
- T/C [7]: 101 % of control
- T/C [8]: 100 % of control
- T/C [9]: 98 % of control

SMILES: CC(=O)c1ccc(N(C)C(=O)C(Cl)Cl)cc1
- T/C (dose: 100.0 mg/kg/injection, schedule: Q04DX003 (ip), vehicle: Klucel (hydroxypropylcellulose) (HPC)): 100 % of control
- T/C (dose: 200.0 mg/kg/injection, schedule: Q04DX003 (ip), vehicle: Klucel (hydroxypropylcellulose) (HPC)): 100 % of control
- T/C (dose: 400.0 mg/kg/injection, schedule: Q04DX003 (ip), vehicle: Klucel (hydroxypropylcellulose) (HPC)): 100 % of control

SMILES: CC1CCOBO1 (stereo unspecified)
- T/C (dose: 100.0 mg/kg/injection, schedule: Q04DX002 (ip), vehicle: Klucel (hydroxypropylcellulose) (HPC)): 98 % of control
- T/C (dose: 200.0 mg/kg/injection, schedule: Q04DX002 (ip), vehicle: Klucel (hydroxypropylcellulose) (HPC)): 101 % of control
- T/C (dose: 400.0 mg/kg/injection, schedule: Q04DX002 (ip), vehicle: Klucel (hydroxypropylcellulose) (HPC)): 98 % of control

SMILES: Cc1cc2c(cc1C)NC(c1ccc(C(N)=S)cc1)N2
- T/C [4]: 92 % of control
- T/C [5]: 86 % of control

SMILES: CC(/C=C/C1OC(=O)C=CC1C)=C\C(C)C/C=C/C(C)=C/C(CO)C(=O)C(C)C(O)C(C)C/C(C)=C/C(=O)O (stereo unspecified)
- T/C (dose: 25.0 micrograms/kg/injection, schedule: Q01DX005 (ip), vehicle: other): 119 % of control
- T/C (dose: 100.0 micrograms/kg/injection, schedule: Q01DX005 (ip), vehicle: other): 153 % of control

SMILES: CC(=O)C1CCC2=C(C1)C(=O)c1cc3c(-c4ccccc4)oc(-c4ccccc4)c3cc1C2=O (stereo unspecified)
- T/C (dose: 7.5 mg/kg/injection, schedule: Q01DX005 (ip), vehicle: Klucel (hydroxypropylcellulose) (HPC)): 87 % of control
- T/C (dose: 15.0 mg/kg/injection, schedule: Q01DX005 (ip), vehicle: Klucel (hydroxypropylcellulose) (HPC)): 94 % of control

SMILES: COC(=O)C(Cc1ccccc1)NCCNC(C)=O (stereo unspecified)
- T/C (dose: 100.0 mg/kg/injection, schedule: Q04DX003 (ip), vehicle: saline with Tween-80): 95 % of control
- T/C (dose: 200.0 mg/kg/injection, schedule: Q04DX003 (ip), vehicle: saline with Tween-80): 95 % of control
